Assay results as given in patent US20240083904A1, “ANTAGONISTS OF THE ADENOSINE A2A RECEPTOR” (AdoRx Therapeutics Limited, priority 2020, published 2024).

Assays:
[1] = biological target: human Adenosine A2a receptor (Homo sapiens (Human), UniProt P29274); test: Adenosine receptor TR-FRET binding assay (A2a); settings: CHO cell membranes, 100 nM CA200645, Ki from IC50 by Cheng and Prusoff
Method: (§1) All FRET binding experiments were conducted at room temperature in white 384-well plates, in assay binding buffer containing 1× LabMed (Cisbio, France), 100 μg/mL saponin, 1% DMSO and 0.02% pluronic acid. Binding of the fluorescently labelled Adenosine receptor antagonist XAC (CA200645, FRET acceptor) to terbium-labelled A1, A2a, A2b and A3 adenosine receptors (FRET donors) was detected by time-resolved FRET due to the close proximity of the donor and acceptor in a binding event. To investigate the ability of unlabelled test compounds to bind to Adenosine A1, A2a, A2b and A3 receptors, dose response curves were constructed that determined the ability of a range of concentrations to inhibit the binding of 30 nM CA200645 to the A2b receptor and 100 nM CA200645 to the A1, A2a, and A3 receptor.
(§2) Serial dilution (1:3 dilutions) of test compounds in neat DMSO and transfer of a 400 nL sample of test compound into the assay plate was carried out using the Mosquito (TTP Labtech, UK). The compound samples were incubated for 2 hours at room temperature with a fixed concentration of CA200645 defined for each receptor (see above) and CHO cell membranes containing the human Adenosine A1 (0.5 μg/well), A2a (0.3 μg/well), A2b (1 μg/well) or A3 (1 μg/well) receptor in 40 μL of assay buffer. Total and non-specific binding of CA200645 was determined in the absence and presence of 10 μM XAC, respectively. Following 2 hours incubation, the level of CA200645 binding was detected on a Pherastar FSX (BMG Labtech, Germany) using standard TR-FRET settings. The terbium donor was excited with three laser flashes at a wavelength of 337 nm, and donor and acceptor emission was detected at 620 nm and 665 nm wavelengths, respectively. FRET ratios were obtained by multiplying the acceptor/donor ratio value by 10,000. Specific binding was determined by subtracting the non-specific binding FRET ratio from the total binding FRET ratio. Compound IC50 curves were analysed using GraphPad Prism 7.0 (GraphPad, USA) and Ki affinity values were determined from the obtained IC50 values using the method of Cheng and Prusoff.

[2] = biological target: human Adenosine A1 receptor (Homo sapiens (Human), UniProt P30542); test: Adenosine receptor TR-FRET binding assay (A1); settings: CHO cell membranes, 100 nM CA200645, Ki from IC50 by Cheng and Prusoff
Method: as §1, §2

[3] = biological target: human Adenosine A2b receptor (Homo sapiens (Human), UniProt P29275); test: Adenosine receptor TR-FRET binding assay (A2b); settings: CHO cell membranes, 30 nM CA200645, Ki from IC50 by Cheng and Prusoff
Method: as §1, §2

[4] = biological target: human Adenosine A3 receptor (Homo sapiens (Human), UniProt P0DMS8); test: Adenosine receptor TR-FRET binding assay (A3); settings: CHO cell membranes, 100 nM CA200645, Ki from IC50 by Cheng and Prusoff
Method: as §1, §2

human PBMCs = test: CD3/CD28 stimulated IL-2 release NECA reversal assay in human PBMCs; assay type: cell-based; settings: PBMC, 1 uM NECA, 24 hours
Method: Blood is drawn from healthy volunteers using sodium citrate as the anticoagulant (0.3% final concentration). After centrifugation of the blood over Histopaque-1077, PBMCs are collected from the Histopaque/plasma interface and washed twice in PBS (300 g for 10 mins at room temp). Cells are plated at 50,000 cells/well in 150 μl RPMI/10% FCS in 96-well cell culture plates that have been precoated with 1 ug/ml CD3 antibody. 50 μl diluted compound mix is added to the cells, to obtain final concentrations of 1 μg/ml CD28 antibody, 1 uM NECA and 0.003-10 μM adenosine receptor antagonist. Assay plates are incubated for 24 hours at 37° C. in a humidified incubator. Culture supernatant is tested for IL-2 levels using the human IL-2 Tissue Culture Kit (Meso Scale Discovery). Data for dose-response curves is calculated as % inhibition with 100% inhibition defined from no agonist control wells (+CD3/28-NECA)

[5] = system: pCREB in CD8+ T cells in human whole blood; test: Measurement of pCREB in CD8+ T cells in human whole blood; assay type: cell-based; settings: T-cell, 3 μM NECA, rolipram, FACS
Method: Heparinised human whole blood was pre-incubated at 37° C. with serial dilutions of A2a antagonists for 20 min. and the phosphodiesterase inhibitor rolipram to amplify the pCREB response. The adenosine receptor agonist NECA is then added at a final concentration of 3 μM and following a 60 min incubation the blood is fixed and red blood cells lysed. White blood cells are isolated, permeabilized and stained with directly conjugated fluorescent antibodies to phospho-CREB (Alexa Fluor 488) and CD8 (Alexa Fluor 647) and the level of phospho-CREB in CD8+ T cells is measured by FACS using a BD Accuri C6 Flow Cytometer.

Chain of human Adenosine A2a receptor (P29274 whole entry): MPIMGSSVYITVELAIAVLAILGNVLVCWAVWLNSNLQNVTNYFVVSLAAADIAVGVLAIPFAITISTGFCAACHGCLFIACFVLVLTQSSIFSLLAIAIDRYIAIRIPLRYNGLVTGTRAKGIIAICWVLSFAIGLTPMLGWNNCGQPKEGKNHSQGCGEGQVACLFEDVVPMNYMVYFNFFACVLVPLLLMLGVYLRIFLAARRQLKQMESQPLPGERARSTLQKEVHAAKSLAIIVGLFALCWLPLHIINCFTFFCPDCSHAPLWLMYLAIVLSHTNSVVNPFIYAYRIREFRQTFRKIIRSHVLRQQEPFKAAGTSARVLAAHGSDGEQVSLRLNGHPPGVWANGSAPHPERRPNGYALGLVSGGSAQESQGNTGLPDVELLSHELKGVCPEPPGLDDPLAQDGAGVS
Chain of human Adenosine A1 receptor (P30542 whole entry): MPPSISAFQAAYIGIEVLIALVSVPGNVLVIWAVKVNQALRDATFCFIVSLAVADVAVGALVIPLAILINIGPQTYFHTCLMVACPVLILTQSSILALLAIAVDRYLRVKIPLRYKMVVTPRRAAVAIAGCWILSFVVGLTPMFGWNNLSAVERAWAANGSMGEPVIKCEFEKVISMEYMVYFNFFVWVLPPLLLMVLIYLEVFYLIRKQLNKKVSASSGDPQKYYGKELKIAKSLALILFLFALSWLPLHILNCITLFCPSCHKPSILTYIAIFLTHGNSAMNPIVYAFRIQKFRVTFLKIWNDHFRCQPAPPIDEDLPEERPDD
Chain of human Adenosine A2b receptor (P29275 whole entry): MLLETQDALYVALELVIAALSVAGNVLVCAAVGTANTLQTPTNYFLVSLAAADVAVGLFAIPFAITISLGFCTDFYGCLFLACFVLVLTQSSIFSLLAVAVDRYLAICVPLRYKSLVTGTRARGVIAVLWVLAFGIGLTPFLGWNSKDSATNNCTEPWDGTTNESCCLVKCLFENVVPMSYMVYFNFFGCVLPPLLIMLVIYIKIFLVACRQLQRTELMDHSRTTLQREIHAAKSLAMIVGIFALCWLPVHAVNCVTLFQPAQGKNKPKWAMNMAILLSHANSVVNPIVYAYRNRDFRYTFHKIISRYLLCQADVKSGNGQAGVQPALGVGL
Chain of human Adenosine A3 receptor (P0DMS8 whole entry): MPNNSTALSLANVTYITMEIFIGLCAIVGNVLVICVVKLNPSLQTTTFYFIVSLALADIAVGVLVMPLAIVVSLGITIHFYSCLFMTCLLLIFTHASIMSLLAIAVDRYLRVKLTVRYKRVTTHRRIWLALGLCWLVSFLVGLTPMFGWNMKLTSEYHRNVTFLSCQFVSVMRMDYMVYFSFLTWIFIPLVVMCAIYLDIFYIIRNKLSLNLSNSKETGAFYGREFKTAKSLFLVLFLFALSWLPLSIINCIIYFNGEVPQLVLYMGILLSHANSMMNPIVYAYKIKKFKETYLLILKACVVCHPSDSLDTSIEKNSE

| Ki [1] [nM] | Ki [2] [nM] | Ki [3] [nM] | Ki [4] [nM] | IC50 [5] [nM] | SMILES | IC50 (human PBMCs) [nM] |
| --- | --- | --- | --- | --- | --- | --- |
| 10.9 | 4000 | 500 | > 1000 | – | CC(C)(O)CNC(=O)c1ccc2nc(-c3cccc(C#N)c3)c(Br)n2n1 [Example 1, 3-Bromo-2-(3-cyanophenyl)-N-(2-hydroxy-2-methyl-propyl)imidazo[1,2-b]pyridazine-6-carboxamide] | – |
| 0.79 | 667 | 212 | > 1000 | 122 | Cc1cc(-c2c(-c3cccc(C#N)c3)nc3ccc(C(=O)NCC(C)(C)O)nn23)cc(C)n1 [Example 2.1, 2-(3-Cyanophenyl)-3-(2,6-dimethyl-4-pyridyl)-N-(2-hydroxy-2-methyl-propyl)imidazo[1,2-b]pyridazine-6-carboxamide] | 13.8 |
| 0.32 | 78 | 34 | > 1000 | 105 | Cc1cc(-c2c(-c3cccc(C#N)c3)nc3ccc(C(=O)N[C@@H](C)C(C)(C)O)nn23)cc(C(F)F)n1 [Example 2.5, 2-(3-Cyanophenyl)-3-[2-(difluoromethyl)-6-methyl-4-pyridyl]-N-[(1S)-2-hydroxy-1,2-dimethyl-propyl]imidazo[1,2-b]pyridazine-6-carboxamide] | 1.1 |
| 0.34 | 324 | 79 | > 1000 | 499 | Cc1cc(-c2c(-c3cccc(C#N)c3)nc3ccc(C(=O)N[C@H](C)C(C)(C)O)nn23)cc(C(F)(F)F)n1 [Example 2.7, 2-(3-Cyanophenyl)-N-[(1R)-2-hydroxy-1,2-dimethyl-propyl]-3-[2-methyl-6-(trifluoromethyl)-4-pyridyl]imidazo[1,2-b]pyridazine-6-carboxamide] | 10.5 |
| 0.19 | 243 | 285 | > 1000 | 472 | COc1cc(-c2c(-c3cccc(C#N)c3)nc3ccc(C(=O)N[C@@H](C)C(C)(C)O)nn23)cc(C)n1 [Example 2.8, 2-(3-Cyanophenyl)-N-[(1S)-2-hydroxy-1,2-dimethyl-propyl]-3-(2-methoxy-6-methyl-4-pyridyl)imidazo[1,2-b]pyridazine-6-carboxamide] | 4.6 |
| 0.16 | 71 | 31 | > 1000 | 61 | Cc1cc(-c2c(-c3cccc(C#N)c3)nc3ccc(C(=O)N[C@@H](C)C(C)(C)O)nn23)cc(C)n1 [Example 3, 2-(3-Cyanophenyl)-3-(2,6-dimethyl-4-pyridyl)-N-[(1S)-2-hydroxy-1,2-dimethyl-propyl]imidazo[1,2-b]pyridazine-6-carboxamide] | 1.7 |

The next lines start with the molecule.

| SMILES | Ki [1] [nM] | Ki [2] [nM] | Ki [3] [nM] | Ki [4] [nM] | IC50 [5] [nM] | IC50 (human PBMCs) [nM] |
| --- | --- | --- | --- | --- | --- | --- |
| CC(=O)c1cc(-c2c(-c3cccc(C#N)c3)nc3ccc(C(=O)NCC(C)(C)O)nn23)cc(C)n1 [Example 2, 3-(2-Acetyl-6-methyl-4-pyridyl)-2-(3-cyanophenyl)-N-(2-hydroxy-2-methyl-propyl)imidazo[1,2-b]pyridazine-6-carboxamide] | 3.9 | 1830 | 1580 | > 1000 | – | – |
| Cc1cc(-c2c(-c3cccc(C#N)c3)nc3ccc(C(=O)NCC(C)(C)O)nn23)cc(Cl)n1 [Example 2.2, 3-(2-Chloro-6-methyl-4-pyridyl)-2-(3-cyanophenyl)-N-(2-hydroxy-2-methyl-propyl)imidazo[1,2-b]pyridazine-6-carboxamide] | 0.5 | 363 | 27 | > 1000 | 496 | 39 |
| Cc1cc(-c2c(-c3cccc(C#N)c3)nc3ccc(C(=O)NCC(C)(C)O)nn23)cc(C(F)(F)F)n1 [Example 2.3, 2-(3-Cyanophenyl)-N-(2-hydroxy-2-methyl-propyl)-3-[2-methyl-6-(trifluoromethyl)-4-pyridyl]imidazo[1,2-b]pyridazine-6-carboxamide] | 0.46 | 95 | 18 | > 1000 | 282 | 7.3 |
| COc1cc(-c2c(-c3cccc(C#N)c3)nc3ccc(C(=O)NCC(C)(C)O)nn23)cc(C)n1 [Example 2.4, 2-(3-Cyanophenyl)-N-(2-hydroxy-2-methyl-propyl)-3-(2-methoxy-6-methyl-4-pyridyl)imidazo[1,2-b]pyridazine-6-carboxamide] | 2.3 | 286 | 156 | > 1000 | 2040 | 13.5 |
| Cc1cc(-c2c(-c3cccc(C#N)c3)nc3ccc(C(=O)N[C@@H](C)C(C)(C)O)nn23)cc(C(F)(F)F)n1 [Example 2.6, 2-(3-Cyanophenyl)-N-[(1S)-2-hydroxy-1,2-dimethyl-propyl]-3-[2-methyl-6-(trifluoromethyl)-4-pyridyl]imidazo[1,2-b]pyridazine-6-carboxamide] | 0.17 | 30 | 18 | > 1000 | 58 | 0.6 |
| Cc1cc(-c2c(-c3cccc(C#N)c3)nc3ccc(C(=O)N[C@@H](C)C(C)(C)O)nn23)cc(Cl)n1 [Example 2.9, 3-(2-Chloro-6-methyl-4-pyridyl)-2-(3-cyanophenyl)-N-[(1S)-2-hydroxy-1,2-dimethyl-propyl]imidazo[1,2-b]pyridazine-6-carboxamide] | 0.2 | 96 | 20 | > 1000 | 168 | 5.3 |
| Cc1cc(-c2c(-c3cccc(C#N)c3)nc3ccc(C(=O)N[C@@H](C)C(C)(C)O)nn23)cc(CO)n1 [Example 6, 2-(3-Cyanophenyl)-N-[(1S)-2-hydroxy-1,2-dimethyl-propyl]-3-[2-(hydroxymethyl)-6-methyl-4-pyridyl]imidazo[1,2-b]pyridazine-6-carboxamide] | 0.68 | 120 | 49 | > 1000 | – | – |
